Experiments:
[1] = tested on: giant foxtail; assay: Test B preemergence/postemergence greenhouse plant response rating 0 to 10; format: in vivo, Setaria faberii; conditions: 0 to 10 scale
Method in brief: (§1)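 Test chemicals, dissolved in a non-phytotoxic solvent, were applied to soil at planting and, at the same time, over foliage of seedlings at the one to four leaf stage.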

[2] = tested on: crabgrass; assay: Test C preemergence/postemergence greenhouse plant response rating 0 to 100; format: in vivo, Digitaria sanguinalis; conditions: POSTEMERGENCE
Method in brief: (§2)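 Compounds in non-phytotoxic solvent applied preemergence to sandy loam one day after planting, postemergence at the 1–4 leaf stage, or to ~2.5 cm floodwater over silt loam.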

[3] = tested on: barnyardgrass; assay: Test B preemergence/postemergence greenhouse plant response rating 0 to 10; format: in vivo, Echinochloa crus-galli; conditions: 0 to 10 scale
Method in brief: as §1

[4] = tested on: lambsquarters; assay: as above; format: in vivo, Chenopodium album; conditions: 0 to 10 scale
Method in brief: as §1

[5] = tested on: velvetleaf; assay: Test C preemergence/postemergence greenhouse plant response rating 0 to 100; format: in vivo, Abutilon theophrasti; conditions: POSTEMERGENCE
Method in brief: as §2

[6] = tested on: pigweed; assay: as above; format: in vivo, Amaranthusretroflexus; conditions: POSTEMERGENCE
Method in brief: as §2

[7] = tested on: purple nutsedge; assay: Test G preemergence/postemergence greenhouse plant response rating 0 to 100; format: in vivo, Cyperus rotundus; conditions: Rate 125 g/ha, 0 to 100 scale
Method in brief: (§3)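 Greenhouse pots, one species each; non-phytotoxic solvent vehicle. Read-out: visual injury vs untreated, 13–21 DAT. Dash denotes no result.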

[8] = tested on: velvetleaf; assay: Test B preemergence/postemergence greenhouse plant response rating 0 to 10; format: in vivo, Abutilon theophrasti; conditions: 0 to 10 scale
Method in brief: as §1

[9] = tested on: sorghum; assay: Test C preemergence/postemergence greenhouse plant response rating 0 to 100; format: in vivo, Sorghum bicolor; conditions: POSTEMERGENCE
Method in brief: as §2

[10] = tested on: sugar beet; assay: Test B preemergence/postemergence greenhouse plant response rating 0 to 10; format: in vivo, Beta vulgaris; conditions: 0 to 10 scale
Method in brief: as §1

[11] = tested on: rice; assay: Test C flood test plant response rating 0 to 100; format: in vivo, Oryza sativa
Method in brief: as §2

[12] = tested on: cotton; assay: Test C preemergence/postemergence greenhouse plant response rating 0 to 100; format: in vivo, Gossypium hirsutum; conditions: POSTEMERGENCE
Method in brief: as §2

[13] = tested on: wild oat; assay: as above; format: in vivo, Avena fatua; conditions: POSTEMERGENCE
Method in brief: as §2

[14] = tested on: alfalfa; assay: Test G preemergence/postemergence greenhouse plant response rating 0 to 100; format: in vivo, Medicago ativa; conditions: 0 to 100 scale
Method in brief: as §3

C#CCN1C(=O)COc2cc(F)c(-c3nn4c(c3Cl)CCCC4)cc21 [Compound 34]
Plant response rating, Giant foxtail ([1]; POSTEMERGENCE, Rate 10 g/ha): 4 | Plant response rating, Giant foxtail ([1]; POSTEMERGENCE, Rate 50 g/ha): 5 | Plant response rating, Giant foxtail ([1]; PREEMERGENCE, Rate 10 g/ha): 3 | Plant response rating, Giant foxtail ([1]; PREEMERGENCE, Rate 50 g/ha): 6 | Plant response rating, Crabgrass ([2]; 62 g/ha, 0 to 100 scale): 60 | Plant response rating (0 to 100), Crabgrass ([2]; Rate 1 g/ha): 10 | Plant response rating (0 to 100), Crabgrass ([2]; Rate 4 g/ha): 20 | Plant response rating (0 to 100), Crabgrass ([2]; Rate 16 g/ha): 30 | Plant response rating, Barnyardgrass ([3]; POSTEMERGENCE, Rate 10 g/ha): 4 | Plant response rating, Barnyardgrass ([3]; POSTEMERGENCE, Rate 50 g/ha): 5 | Plant response rating, Barnyardgrass ([3]; PREEMERGENCE, Rate 10 g/ha): 3 | Plant response rating, Barnyardgrass ([3]; PREEMERGENCE, Rate 50 g/ha): 4 | Plant response rating, Lambsquarter ([4]; POSTEMERGENCE, Rate 10 g/ha): 9 | Plant response rating, Lambsquarter ([4]; POSTEMERGENCE, Rate 50 g/ha): 10 | Plant response rating, Lambsquarter ([4]; PREEMERGENCE, Rate 50 g/ha): 10 | Plant response rating, Velvetleaf ([5]; 62 g/ha, 0 to 100 scale): 100 | Plant response rating (0 to 100), Velvetleaf ([5]; Rate 1 g/ha): 100 | Plant response rating (0 to 100), Velvetleaf ([5]; Rate 4 g/ha): 100 | Plant response rating (0 to 100), Velvetleaf ([5]; Rate 16 g/ha): 100 | Plant response rating Pigweed ([6]; 62 g/ha, 0 to 100 scale): 100 | Plant response rating (0 to 100), Pigweed ([6]; Rate 1 g/ha): 90 | Plant response rating (0 to 100), Pigweed ([6]; Rate 4 g/ha): 100 | Plant response rating (0 to 100), Pigweed ([6]; Rate 16 g/ha): 100 | Plant response rating, Purple Nutsedge ([7]; POSTEMERGENCE): 20 | Plant response rating, Purple Nutsedge ([7]; PREEMERGENCE): 0 | Plant response rating, Velvetleaf ([8]; POSTEMERGENCE, Rate 10 g/ha): 10 | Plant response rating, Velvetleaf ([8]; POSTEMERGENCE, Rate 50 g/ha): 1 | Plant response rating, Velvetleaf ([8]; PREEMERGENCE, Rate 50 g/ha): 10 | Plant response rating, Sorghum ([9]; 62 g/ha, 0 to 100 scale): 70 | Plant response rating (0 to 100), Sorghum ([9]; Rate 1 g/ha): 30 | Plant response rating (0 to 100), Sorghum ([9]; Rate 4 g/ha): 40 | Plant response rating (0 to 100), Sorghum ([9]; Rate 16 g/ha): 50 | Plant response rating, Sugar beet ([10]; POSTEMERGENCE, Rate 10 g/ha): 10 | Plant response rating, Sugar beet ([10]; POSTEMERGENCE, Rate 50 g/ha): 10 | Plant response rating, Sugar beet ([10]; PREEMERGENCE, Rate 50 g/ha): 9 | Plant response rating (0 to 100), Rice Japonica ([11]; POSTEMERGENCE section, flood test, Rate 1 g/ha): 20 | Plant response rating (0 to 100), Rice Japonica ([11]; POSTEMERGENCE section, flood test, Rate 4 g/ha): 25 | Plant response rating (0 to 100), Rice Japonica ([11]; Rate 16 g/ha, under POSTEMERGENCE head (flood test species)): 35 | Plant response rating Rice Japonica ([11]; flood test species listed under POSTEMERGENCE, 62 g/ha, 0 to 100 scale): 90 | Plant response rating, Cotton ([12]; 62 g/ha, 0 to 100 scale): 100 | Plant response rating (0 to 100), Cotton ([12]; Rate 1 g/ha): 100 | Plant response rating (0 to 100), Cotton ([12]; Rate 4 g/ha): 100 | Plant response rating (0 to 100), Cotton ([12]; Rate 16 g/ha): 100 | Plant response rating, Wild oat ([13]; 62 g/ha, 0 to 100 scale): 30 | Plant response rating (0 to 100), Wild oat ([13]; Rate 1 g/ha): 10 | Plant response rating (0 to 100), Wild oat ([13]; Rate 4 g/ha): 20 | Plant response rating (0 to 100), Wild oat ([13]; Rate 16 g/ha): 20 | Plant response rating, Alfalfa Var. ([14]; POSTEMERGENCE, Rate 125 g/ha): 40 | Plant response rating, Alfalfa Var. ([14]; POSTEMERGENCE, Rate 250 g/ha): 60 | Plant response rating, Alfalfa Var. ([14]; PREEMERGENCE, Rate 125 g/ha): 0 | Plant response rating, Alfalfa Var. ([14]; PREEMERGENCE, Rate 250 g/ha): 100

From patent US6358885B1, “Substituted phenylheterocyclic herbicides” (Mississippi State University, priority 1992, dated 2002)
